Experiment: Solubility of Iopamidol plotted against reflux time (FIG. 1)
Type: physicochemical
Procedure: With reference to FIG. 1, there is a graph showing the solubility of Iopamidol plotted against reflux time when a ratio of Iopamidol:water:ethanol 4:1:8 (w/v/v) is used in accordance with the method of the present invention. As shown in this graph, the reflux for 4 hours or greater allows the crystallized Iopamidol to have a solubility of 80% or greater. […] Because Iopamidol monohydrates or pentahydrates are of about 50% solubility, the method of the present invention can convert Iopamidol monohydrates or pentahydrates into Iopamidol anhydrides.
FIG. 1 is a graph showing the solubility change of the Iopamidol with reflux time.

## C[C@H](O)C(=O)Nc1c(I)c(C(=O)NC(CO)CO)c(I)c(C(=O)NC(CO)CO)c1I [Iopamidol monohydrates, Iopamidol]
Hydrated crystalline forms
  solubility: about 50%

## C[C@H](O)C(=O)Nc1c(I)c(C(=O)NC(CO)CO)c(I)c(C(=O)NC(CO)CO)c1I [Iopamidol]
Crystallized Iopamidol, Iopamidol:water:ethanol 4:1:8 (w/v/v), reflux for 4 hours or greater
  solubility: ≥ 80%
